Assay results taken from the NIST ThermoML archive (doi:10.1021/acs.jced.6b00688).

Test: xn = mol fraction of the nth substance listed
Conditions: 100 kPa, Liquid; for viscosity: Falling or rolling sphere viscometry; for mass density: Vibrating tube method

OCC1CCCCC1 [cyclohexylmethanol] + CC1CCCCC1
Conditions | mass density [kg/m3] | viscosity [mPa·s]
293.15 K, x2 = 0.0998 | 914.04 | 22.56
293.15 K, x2 = 0.1996 | 898.07 | 12.82
293.15 K, x2 = 0.2999 | 881.82 | 7.902
293.15 K, x2 = 0.3998 | 865.56 | 4.953
293.15 K, x2 = 0.5004 | 848.97 | 3.225
293.15 K, x2 = 0.6007 | 832.61 | 2.164
293.15 K, x2 = 0.6997 | 816.64 | 1.555
293.15 K, x2 = 0.7984 | 800.82 | 1.159
293.15 K, x2 = 0.9012 | 784.55 | 0.891
298.15 K, x2 = 0.0998 | 910.42 | 17.67
298.15 K, x2 = 0.1996 | 894.34 | 10.28
298.15 K, x2 = 0.2999 | 877.99 | 6.5
298.15 K, x2 = 0.3998 | 861.58 | 4.176
298.15 K, x2 = 0.5004 | 844.91 | 2.832
298.15 K, x2 = 0.6007 | 828.51 | 1.92
298.15 K, x2 = 0.6997 | 812.48 | 1.407
298.15 K, x2 = 0.7984 | 796.58 | 1.065
298.15 K, x2 = 0.9012 | 780.24 | 0.817
303.15 K, x2 = 0.0998 | 906.77 | 14.09
303.15 K, x2 = 0.1996 | 890.57 | 8.368
303.15 K, x2 = 0.2999 | 874.13 | 5.421
303.15 K, x2 = 0.3998 | 857.62 | 3.567
303.15 K, x2 = 0.5004 | 840.88 | 2.446
303.15 K, x2 = 0.6007 | 824.38 | 1.715
303.15 K, x2 = 0.6997 | 808.29 | 1.279
303.15 K, x2 = 0.7984 | 792.32 | 0.98
303.15 K, x2 = 0.9012 | 775.91 | 0.769
308.15 K, x2 = 0.0998 | 903.08 | 11.37
308.15 K, x2 = 0.1996 | 886.77 | 6.888
308.15 K, x2 = 0.2999 | 870.24 | 4.567
308.15 K, x2 = 0.3998 | 853.63 | 3.075
308.15 K, x2 = 0.5004 | 836.92 | 2.155
308.15 K, x2 = 0.6007 | 820.24 | 1.542
308.15 K, x2 = 0.6997 | 804.07 | 1.167
308.15 K, x2 = 0.7984 | 788.03 | 0.905
308.15 K, x2 = 0.9012 | 771.56 | 0.718
313.15 K, x2 = 0.0998 | 899.36 | 9.257
313.15 K, x2 = 0.1996 | 882.93 | 5.729
313.15 K, x2 = 0.2999 | 866.31 | 3.884
313.15 K, x2 = 0.3998 | 849.61 | 2.672
313.15 K, x2 = 0.5004 | 832.82 | 1.912
313.15 K, x2 = 0.6007 | 816.06 | 1.393
313.15 K, x2 = 0.6997 | 799.82 | 1.069
313.15 K, x2 = 0.7984 | 783.71 | 0.839
313.15 K, x2 = 0.9012 | 767.17 | 0.672
318.15 K, x2 = 0.0998 | 895.6 | 7.638
318.15 K, x2 = 0.1996 | 879.05 | 4.813
318.15 K, x2 = 0.2999 | 862.35 | 3.332
318.15 K, x2 = 0.3998 | 845.56 | 2.34
318.15 K, x2 = 0.5004 | 828.69 | 1.706
318.15 K, x2 = 0.6007 | 811.86 | 1.264
318.15 K, x2 = 0.6997 | 795.54 | 0.983
318.15 K, x2 = 0.7984 | 779.36 | 0.779
318.15 K, x2 = 0.9012 | 762.76 | 0.631
323.15 K, x2 = 0.0998 | 891.81 | 6.35
323.15 K, x2 = 0.1996 | 875.15 | 4.082
323.15 K, x2 = 0.2999 | 858.35 | 2.882
323.15 K, x2 = 0.3998 | 841.47 | 2.064
323.15 K, x2 = 0.5004 | 824.52 | 1.539
323.15 K, x2 = 0.6007 | 807.62 | 1.152
323.15 K, x2 = 0.6997 | 791.23 | 0.907
323.15 K, x2 = 0.7984 | 774.99 | 0.726
323.15 K, x2 = 0.9012 | 758.33 | 0.594
328.15 K, x2 = 0.0998 | 887.97 | 5.322
328.15 K, x2 = 0.1996 | 871.24 | 3.491
328.15 K, x2 = 0.2999 | 854.31 | 2.512
328.15 K, x2 = 0.3998 | 837.35 | 1.831
328.15 K, x2 = 0.5004 | 820.32 | 1.379
328.15 K, x2 = 0.6007 | 803.35 | 1.054
328.15 K, x2 = 0.6997 | 786.89 | 0.839
328.15 K, x2 = 0.7984 | 770.58 | 0.679
328.15 K, x2 = 0.9012 | 753.86 | 0.561
333.15 K, x2 = 0.0998 | 884.09 | 4.526
333.15 K, x2 = 0.1996 | 867.26 | 3.011
333.15 K, x2 = 0.2999 | 850.23 | 2.204
333.15 K, x2 = 0.3998 | 833.14 | 1.634
333.15 K, x2 = 0.5004 | 816.09 | 1.25
333.15 K, x2 = 0.6007 | 799.05 | 0.967
333.15 K, x2 = 0.6997 | 782.43 | 0.778
333.15 K, x2 = 0.7984 | 766.13 | 0.637
333.15 K, x2 = 0.9012 | 749.37 | 0.531

OCC1CCCCC1 [cyclohexylmethanol] + CCCCCCCCCCCC
Conditions | mass density [kg/m3] | viscosity [mPa·s]
293.15 K, x2 = 0.1014 | 898.17 | 18.36
293.15 K, x2 = 0.1991 | 872.04 | 9.786
293.15 K, x2 = 0.299 | 849.06 | 6.177
293.15 K, x2 = 0.3997 | 828.81 | 4.307
293.15 K, x2 = 0.4992 | 811.3 | 3.223
293.15 K, x2 = 0.6005 | 795.57 | 2.542
293.15 K, x2 = 0.7008 | 781.83 | 2.087
293.15 K, x2 = 0.7986 | 769.9 | 1.809
293.15 K, x2 = 0.8996 | 758.73 | 1.594
298.15 K, x2 = 0.1014 | 894.59 | 14.59
298.15 K, x2 = 0.1991 | 868.46 | 7.99
298.15 K, x2 = 0.299 | 845.44 | 5.179
298.15 K, x2 = 0.3997 | 825.18 | 3.688
298.15 K, x2 = 0.4992 | 807.71 | 2.813
298.15 K, x2 = 0.6005 | 791.92 | 2.251
298.15 K, x2 = 0.7008 | 778.16 | 1.873
298.15 K, x2 = 0.7986 | 766.22 | 1.633
298.15 K, x2 = 0.8996 | 755.05 | 1.447
303.15 K, x2 = 0.1014 | 890.99 | 11.73
303.15 K, x2 = 0.1991 | 864.86 | 6.621
303.15 K, x2 = 0.299 | 841.79 | 4.403
303.15 K, x2 = 0.3997 | 821.5 | 3.197
303.15 K, x2 = 0.4992 | 804.02 | 2.479
303.15 K, x2 = 0.6005 | 788.23 | 2.01
303.15 K, x2 = 0.7008 | 774.47 | 1.69
303.15 K, x2 = 0.7986 | 762.53 | 1.481
303.15 K, x2 = 0.8996 | 751.37 | 1.321
308.15 K, x2 = 0.1014 | 887.35 | 9.573
308.15 K, x2 = 0.1991 | 861.23 | 5.545
308.15 K, x2 = 0.299 | 838.08 | 3.779
308.15 K, x2 = 0.3997 | 817.79 | 2.795
308.15 K, x2 = 0.4992 | 800.32 | 2.201
308.15 K, x2 = 0.6005 | 784.52 | 1.806
308.15 K, x2 = 0.7008 | 770.76 | 1.532
308.15 K, x2 = 0.7986 | 758.82 | 1.351
308.15 K, x2 = 0.8996 | 747.67 | 1.211
313.15 K, x2 = 0.1014 | 883.69 | 7.9
313.15 K, x2 = 0.1991 | 857.57 | 4.691
313.15 K, x2 = 0.299 | 834.37 | 3.271
313.15 K, x2 = 0.3997 | 814.07 | 2.461
313.15 K, x2 = 0.4992 | 796.59 | 1.966
313.15 K, x2 = 0.6005 | 780.79 | 1.631
313.15 K, x2 = 0.7008 | 767.03 | 1.395
313.15 K, x2 = 0.7986 | 755.09 | 1.237
313.15 K, x2 = 0.8996 | 743.96 | 1.115
318.15 K, x2 = 0.1014 | 879.99 | 6.588
318.15 K, x2 = 0.1991 | 853.91 | 4.005
318.15 K, x2 = 0.299 | 830.77 | 2.854
318.15 K, x2 = 0.3997 | 810.31 | 2.183
318.15 K, x2 = 0.4992 | 792.83 | 1.767
318.15 K, x2 = 0.6005 | 777.04 | 1.48
318.15 K, x2 = 0.7008 | 763.28 | 1.276
318.15 K, x2 = 0.7986 | 751.35 | 1.138
318.15 K, x2 = 0.8996 | 740.24 | 1.031
323.15 K, x2 = 0.1014 | 876.25 | 5.525
323.15 K, x2 = 0.1991 | 850.16 | 3.447
323.15 K, x2 = 0.299 | 827.01 | 2.507
323.15 K, x2 = 0.3997 | 806.53 | 1.947
323.15 K, x2 = 0.4992 | 789.05 | 1.594
323.15 K, x2 = 0.6005 | 773.26 | 1.348
323.15 K, x2 = 0.7008 | 759.51 | 1.171
323.15 K, x2 = 0.7986 | 747.58 | 1.05
323.15 K, x2 = 0.8996 | 736.5 | 0.957
328.15 K, x2 = 0.1014 | 872.47 | 4.696
328.15 K, x2 = 0.1991 | 846.36 | 2.99
328.15 K, x2 = 0.299 | 823.2 | 2.216
328.15 K, x2 = 0.3997 | 802.71 | 1.746
328.15 K, x2 = 0.4992 | 785.24 | 1.446
328.15 K, x2 = 0.6005 | 769.45 | 1.233
328.15 K, x2 = 0.7008 | 755.71 | 1.079
328.15 K, x2 = 0.7986 | 743.79 | 0.973
328.15 K, x2 = 0.8996 | 732.74 | 0.891
333.15 K, x2 = 0.1014 | 868.64 | 3.987
333.15 K, x2 = 0.1991 | 842.52 | 2.614
333.15 K, x2 = 0.299 | 819.35 | 1.972
333.15 K, x2 = 0.3997 | 798.87 | 1.574
333.15 K, x2 = 0.4992 | 781.41 | 1.318
333.15 K, x2 = 0.6005 | 765.62 | 1.132
333.15 K, x2 = 0.7008 | 751.89 | 0.997
333.15 K, x2 = 0.7986 | 739.98 | 0.904
333.15 K, x2 = 0.8996 | 728.97 | 0.832
